According to patent US20240123076A1, “UNSATURATED DENDRIMERS COMPOSITIONS, RELATED FORMULATIONS, AND METHODS OF USE THEREOF” (The Board of Regents of The University of Texas System, priority 2021, published 2024):
Entries after “also recorded” stand apart in the source; their conditions may differ.

Tests used:
[1] = tested on: IGROV-1 cells; assay: In vitro luciferase expression of Luc mRNA LNPs; assay type: cell-based; conditions: IGROV-I cells, 25 ng mRNA per well, 24 h; lipid:DOPE:cholesterol:DMG-PEG2k 15:15:30:3
Description: Ionizable lipid, DOPE, cholesterol, DMG-PEG2k were dissolved in ethanol as noted below (S2, base formulation). Firefly Luciferase (Luc) mRNA was diluted in 10 mM citric acid-sodium citrate buffer (pH 4.4). The lipid mixture and nucleic acid solution were rapidly combined at a volumetric ratio of 3:1 nucleic acid:lipid mix. Afterwards, the LNP formulations were diluted with 1×PBS to 1 ng/uL concentration.
IGROV-1 cells were seeded into white 96-well plates at a density of 1×10^4 cells per well the day before transfection with media. Day of transfection, the media was replaced with 200 μL of fresh media. Then, 25 μL of the Luc mRNA formulations were added with a fixed dose of 25 ng mRNA per well. After incubation for another 24 hours, ONE-Glo+ Tox kits (Promega) were used to detect Luc mRNA expression and cytotoxicity.

[2] = tested on: C57BL/6 mice; assay: In vivo luciferase mRNA delivery (bioluminescence imaging, liver); conditions: 4-component LNP, tail vein, 0.25 mg/kg Luc mRNA, 6 h
Description: Ionizable lipid(s), DOPE, cholesterol, DMG-PEG2k were dissolved in ethanol as noted below in S2, and the Luc mRNA was diluted in 10 mM citric acid-sodium citrate buffer (pH 4.4) at the desired dosage. The lipid mixture and nucleic acid dilution were rapidly combined at a volumetric ratio of 3:1 nucleic acid:lipid mix. The nanoparticles were dialyzed against 1×PBS in Pur-A-Lyzer midi dialysis chambers (Sigma-Aldrich, WMCO 3.5 kDa) for 2 hours prior to injection.
All experiments were approved by the Institutional Animal Care & Use Committee (IACUC) of The University of Texas Southwestern Medical Center and were consistent with local, state and federal regulations as applicable. Female C57BL/6 mice (18-20 g) were injected with LNP formulations via tail vein injection (5 ug of mRNA, 0.25 mg/kg). After 6 h, the luciferase expression was evaluated by live animal bioluminescence imaging. Animals were anesthetized under isofluorane, and D-Luciferin (150 mg/kg) was introduced by intraperitoneal injection. Then, the luciferase activity was imaged, and ex vivo imaging was performed on systemic organs after resection on an IVIS Lumina system (Perkin Elmer). The images were processed using Living Image analysis software (Perkin Elmer).

[3] = Lipid fusion assay (FRET); conditions: PBS pH 5.5, 37° C., 5 min
Description: Endosome mimicking anionic liposomes were prepared by mixing DOPS:DOPC:DOPE:NBD-PE:N-Rh-PE (25:25:48:1:1 molar ratio) in CHCl3 at a fixed total lipid concentration of 1 mM. Afterwards, the film was created by rotary evaporation of the solution, followed by 2 h of vacuum drying to produce a thin lipid film.
LNPs were formulated with the in vivo method. 100 uL PBS (pH 5.5) was added to each well in a black 96-well plate (n=3 per sample), and 1 μL of endosome mimicking anionic liposomes (1 mM) was added to each well. Endosome mimicking anionic liposomes in PBS served as the negative control (Fmin), and the endosome mimic lipids incubated with 2% Triton-X in PBS solutions were set as positive control (Fmax). 10 μL of LNPs being tested were added to the wells (n=3). After incubating at 37° C. for 5 min., fluorescence measurements (F) were conducted on a microplate reader at Ex/Em=465/520 nm. The lipid fusion (%) was calculated as (F−Fmin)/(Fmax−Fmin)*100%.
Fluorescence resonance energy transfer (FRET)-based assay was employed to determine the LNP's ability to disrupt and fuse with the endosomal membrane (FIG. 4). DOPE-conjugated FRET probes (NBD-PE and N—Rh-PE) were formulated into endosome-mimicking nanoparticles. NBD is normally quenched by the rhodamine, but the NBD signal would rise if disruption of the membrane occurred. […]

[4] = tested on: C57BL/6 mice; assay: Biodistribution of Cy5 Luc mRNA LNPs (ex vivo imaging); assay type: in vivo; conditions: IV, 0.25 mg/kg, 6 hours, ex vivo organs
[5] = tested on: IGROVI cells; assay: Cellular uptake and intracellular trafficking of Cy5-labeled mRNA LNPs (confocal imaging); assay type: cell-based; conditions: for co-localization of Cy5 mRNA with lysosomes: 4 h and 24 h after incubation; for cellular uptake (internalization) of Cy5 Luc mRNA LNPs: at 4 hours and 24 hours
Description: Flash chromatography was performed on a Teledyne Isco CombiFlash Rf-200i chromatography system equipped with UV-Vis and evaporative light scattering detectors (ELSD) or manually using 60 Å, 40-63 um Silica (Sorbtech) or activated, neutral Aluminum Oxide (Sigma-Aldrich). Particle sizes and PDI were measured by Dynamic Light Scattering (DLS) using a Malvern Zetasizer Nano ZS (He-Ne laser, λ=632 nm). Confocal microscopy was conducted using a Zeiss LSM-710 laser scanning confocal microscope and data analyzed with the Zeiss LSM-710 software.
Cellular uptake and intracellular trafficking was further examined, in vitro experiments were performed using Cy5-labeled mRNA LNPs. […] The progression of Cy5 mRNA was further tracked from the cell membrane to endosomes to lysosomes and quantified co-localization of Cy5 mRNA with lysosomes. […] The overall results connected chemical structure to factors including cellular uptake, endosomal escape, and intracellular trafficking.

Row | SMILES | biodistribution of Cy5 Luc mRNA (ROI values) [4] | co-localization of Cy5 mRNA with lysosomes [5] | cellular uptake (internalization) of Cy5 Luc mRNA LNPs [5] | further results
1 | C/C=C/CCCSC(C)C(=O)OCCOC(=O)CCN(CCCN(C)CCCN(CCC(=O)OCCOC(=O)C(C)SCCC/C=C/C)CCC(=O)OCCOC(=O)C(C)SCCC/C=C/C)CCC(=O)OCCOC(=O)C(C)SCCC/C=C/C (centres unmarked) [4A3-4T] | – | – | – | Luc mRNA expression (in vitro Luc mRNA delivery) [1]: most potent
2 | CC/C=C\C/C=C\CSC(C)C(=O)OCCOC(=O)CCN(CCCN(C)CCCN(CCC(=O)OCCOC(=O)C(C)SC/C=C\C/C=C\CC)CCC(=O)OCCOC(=O)C(C)SC/C=C\C/C=C\CC)CCC(=O)OCCOC(=O)C(C)SC/C=C\C/C=C\CC (centres unmarked) [4A3-8/2] | – | – | – | Luc mRNA expression in vivo (mRNA delivery) [2]: lower Luc expression compared to its alkyl partner
3 | CC(C)=CCCC(C)CCSC(C)C(=O)OCCOC(=O)CCN(CCCN(C)CCCN(CCC(=O)OCCOC(=O)C(C)SCCC(C)CCC=C(C)C)CCC(=O)OCCOC(=O)C(C)SCCC(C)CCC=C(C)C)CCC(=O)OCCOC(=O)C(C)SCCC(C)CCC=C(C)C (centres unmarked) [4A3-Cit] | no statistical difference; also recorded: did not change the biodistribution | reduced colocalization with lysosomes | effectively internalized | lipid fusion with the model endosomal membrane [3]: efficacious; also recorded: highest lipid fusion ability; speed of internalization of Cy5 Luc mRNA LNPs ([5]; at 4 hours, versus saturated 4A3-SC8 LNPs): internalizing slightly faster; Luc mRNA expression in vivo (mRNA delivery) ([2]; 0.25 mg/kg): performed better than 4A3-Ne; also recorded: highest efficacy
4 | CCCCCCCCSC(C)C(=O)OCCOC(=O)CCN(CCCN(C)CCCN(CCC(=O)OCCOC(=O)C(C)SCCCCCCCC)CCC(=O)OCCOC(=O)C(C)SCCCCCCCC)CCC(=O)OCCOC(=O)C(C)SCCCCCCCC (centres unmarked) [4A3-SC8, reference compound] | no statistical difference | reduced colocalization with lysosomes | effectively internalized | –
